*1 amine or outer side, *2 acyl side, *3 side chain or, on linkers, in order; H or OH if unused. Where a SMILES comes first, the peptide text is derived from it. [ ]: non-standard residue; d: D form. Gly(oct-7-en-1-yl) = C=CCCCCCC[C@H](N)C(=O)O; Ala(5-hexenyl) = C=CCCCCC[C@H](N)C(=O)O; X1 = CCCCCCC[C@H](N[*:1])C(=O)[*:2]; X2 = C=CCCCC[C@H](N[*:1])C(=O)[*:2] Bounds are passed on as bounds.

This is an account of results in ChEMBL document CHEMBL1629456, “ApoA-I mimetic peptides promote pre-β HDL formation in vivo causing remodeling of HDL and triglyceride accumulation at higher dose” (Bioorg Med Chem, 2010).

The target in the assay is Phospholipid-transporting ATPase ABCA1 (Mus musculus, UniProt P41233). In words: Induction of ABCA1-mediated [3H]cholesterol efflux in mouse RAW 264.7 macrophages after 24 hrs.
Phospholipid-transporting ATPase ABCA1, sequence (P41233 whole entry): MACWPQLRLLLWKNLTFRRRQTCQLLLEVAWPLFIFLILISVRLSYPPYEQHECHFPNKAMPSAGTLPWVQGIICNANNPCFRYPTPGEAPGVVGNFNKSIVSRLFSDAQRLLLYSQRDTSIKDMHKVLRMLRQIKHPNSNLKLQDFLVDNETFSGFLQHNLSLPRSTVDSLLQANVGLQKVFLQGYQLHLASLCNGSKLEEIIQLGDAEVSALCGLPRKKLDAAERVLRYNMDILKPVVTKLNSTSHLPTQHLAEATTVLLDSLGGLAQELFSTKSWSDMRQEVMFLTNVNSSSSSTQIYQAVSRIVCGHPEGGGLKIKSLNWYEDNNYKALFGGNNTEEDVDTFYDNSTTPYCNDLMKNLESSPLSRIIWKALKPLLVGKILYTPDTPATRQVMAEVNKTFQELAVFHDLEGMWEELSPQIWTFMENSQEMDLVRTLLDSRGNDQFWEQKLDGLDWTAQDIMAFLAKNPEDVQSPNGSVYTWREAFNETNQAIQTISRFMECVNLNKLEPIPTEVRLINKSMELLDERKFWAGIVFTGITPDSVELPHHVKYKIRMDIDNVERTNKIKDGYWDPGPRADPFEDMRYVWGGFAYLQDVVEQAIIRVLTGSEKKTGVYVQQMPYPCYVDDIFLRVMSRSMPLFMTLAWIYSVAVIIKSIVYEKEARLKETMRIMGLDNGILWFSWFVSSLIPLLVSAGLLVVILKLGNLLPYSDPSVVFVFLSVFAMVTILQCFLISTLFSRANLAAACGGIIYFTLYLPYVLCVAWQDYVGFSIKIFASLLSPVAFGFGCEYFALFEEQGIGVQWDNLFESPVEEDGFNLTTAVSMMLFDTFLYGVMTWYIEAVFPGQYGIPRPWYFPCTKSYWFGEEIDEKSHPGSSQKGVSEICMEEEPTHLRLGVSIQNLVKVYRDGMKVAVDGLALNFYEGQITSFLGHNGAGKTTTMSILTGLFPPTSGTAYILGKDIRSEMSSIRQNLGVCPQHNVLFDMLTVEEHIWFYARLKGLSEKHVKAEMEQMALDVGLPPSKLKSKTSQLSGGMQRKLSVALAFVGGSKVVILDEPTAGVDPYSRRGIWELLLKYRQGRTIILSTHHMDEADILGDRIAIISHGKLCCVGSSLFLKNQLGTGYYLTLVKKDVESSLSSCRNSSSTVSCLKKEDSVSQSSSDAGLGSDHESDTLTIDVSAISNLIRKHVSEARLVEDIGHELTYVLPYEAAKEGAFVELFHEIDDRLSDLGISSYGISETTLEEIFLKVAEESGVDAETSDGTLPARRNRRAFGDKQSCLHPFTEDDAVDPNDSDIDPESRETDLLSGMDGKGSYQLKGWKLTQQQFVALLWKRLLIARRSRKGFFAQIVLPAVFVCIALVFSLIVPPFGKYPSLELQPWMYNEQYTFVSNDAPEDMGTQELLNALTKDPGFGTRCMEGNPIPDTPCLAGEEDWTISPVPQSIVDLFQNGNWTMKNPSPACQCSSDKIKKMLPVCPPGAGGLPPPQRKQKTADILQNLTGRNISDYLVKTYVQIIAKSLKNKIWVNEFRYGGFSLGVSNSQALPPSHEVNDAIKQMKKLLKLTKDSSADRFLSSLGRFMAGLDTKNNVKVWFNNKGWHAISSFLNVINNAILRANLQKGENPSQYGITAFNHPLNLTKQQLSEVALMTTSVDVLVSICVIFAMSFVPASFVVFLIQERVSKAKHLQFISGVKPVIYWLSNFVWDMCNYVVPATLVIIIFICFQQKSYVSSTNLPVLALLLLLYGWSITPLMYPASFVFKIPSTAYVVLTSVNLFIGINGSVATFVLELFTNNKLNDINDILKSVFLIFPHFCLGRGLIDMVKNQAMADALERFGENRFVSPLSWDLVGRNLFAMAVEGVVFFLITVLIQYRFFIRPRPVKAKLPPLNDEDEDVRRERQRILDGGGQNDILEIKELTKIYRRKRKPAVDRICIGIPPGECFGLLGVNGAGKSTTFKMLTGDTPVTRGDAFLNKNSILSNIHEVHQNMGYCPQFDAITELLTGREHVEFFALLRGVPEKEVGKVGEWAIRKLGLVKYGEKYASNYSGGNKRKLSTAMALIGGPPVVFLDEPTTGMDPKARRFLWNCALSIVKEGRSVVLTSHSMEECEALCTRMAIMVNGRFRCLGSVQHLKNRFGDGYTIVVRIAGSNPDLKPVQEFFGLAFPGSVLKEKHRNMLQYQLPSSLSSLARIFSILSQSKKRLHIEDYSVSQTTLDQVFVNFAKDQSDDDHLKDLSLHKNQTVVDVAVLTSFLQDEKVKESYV
The molecule `C=CCCCC[C@H](NC(=O)[C@H](CCC(=O)O)NC(=O)[C@H](CC(N)=O)NC(=O)[C@H](CC(C)C)NC(=O)[C@H](CCCCN)NC(=O)[C@H](CCC(=O)O)NC(=O)[C@H](CCCNC(=N)N)NC(=O)[C@H](Cc1ccccc1)NC(=O)[C@H](CCC(=O)O)NC(=O)[C@H](CC(=O)O)NC(=O)[C@H](CC(C)C)NC(=O)[C@@H](NC(=O)[C@@H]1CCCN1C(C)=O)C(C)C)C(=O)N[C@@H](CC(C)C)C(=O)N[C@@H](CCC(=O)O)C(=O)N[C@@H](C)C(=O)N[C@@H](CC(C)C)C(=O)N[C@@H](CCCCN)C(=O)N[C@@H](CCC(N)=O)C(=O)N[C@@H](CCCCN)C(=O)N[C@@H](CC(C)C)C(=O)N[C@@H](CCCCN)C(N)=O` (Ac-PVLDEFREKLNE[X2]LEALKQKLK-NH2) returned an EC50 of 1400 nM.

As to `C=CCCCC[C@H](NC(=O)[C@H](C)NC(=O)[C@H](CCC(=O)O)NC(=O)[C@H](CC(C)C)NC(=O)[C@H](CCC(=O)O)NC(=O)[C@H](CCC(=O)O)NC(=O)[C@H](CC(N)=O)NC(=O)[C@H](CC(C)C)NC(=O)[C@H](CCCCN)NC(=O)[C@H](CCC(=O)O)NC(=O)[C@H](CCCNC(=N)N)NC(=O)[C@H](Cc1ccccc1)NC(=O)[C@H](CCC(=O)O)NC(=O)[C@H](CC(=O)O)NC(=O)[C@H](CC(C)C)NC(=O)[C@@H](NC(=O)[C@@H]1CCCN1C(C)=O)C(C)C)C(=O)N[C@@H](CCCCN)C(=O)N[C@@H](CCC(N)=O)C(=O)N[C@@H](CCCCN)C(=O)N[C@@H](CC(C)C)C(=O)N[C@@H](CCCCN)C(N)=O`, the EC50 is > 100000 nM. In the case of `C=CCCCCC[C@H](NC(=O)[C@H](CCC(N)=O)NC(=O)[C@H](CCCCN)NC(=O)[C@H](CC(C)C)NC(=O)[C@H](C)NC(=O)[C@H](CCC(=O)O)NC(=O)[C@H](CC(C)C)NC(=O)[C@H](CCCCCC=C)NC(=O)[C@H](CCC(=O)O)NC(=O)[C@H](CC(N)=O)NC(=O)[C@H](CC(C)C)NC(=O)[C@H](CCCCN)NC(=O)[C@H](CCC(=O)O)NC(=O)[C@H](CCCN=C(N)N)NC(=O)[C@H](Cc1ccccc1)NC(=O)[C@H](CCC(=O)O)NC(=O)[C@H](CC(=O)O)NC(=O)[C@H](CC(C)C)NC(=O)[C@H](CCCCCC=C)NC(=O)[C@@H]1CCCN1C(C)=O)C(=O)N[C@@H](CC(C)C)C(=O)N[C@@H](CCCCN)C(N)=O` (Ac-P[Ala(5-hexenyl)]LDEFREKLNE[Ala(5-hexenyl)]LEALKQ[Ala(5-hexenyl)]LK-NH2) it was 5000 nM. The figure for `C=CCCCCC[C@H](NC(=O)[C@H](CCC(N)=O)NC(=O)[C@H](CCCCN)NC(=O)[C@H](CC(C)C)NC(=O)[C@H](C)NC(=O)[C@H](CCC(=O)O)NC(=O)[C@H](CC(C)C)NC(=O)[C@H](CCCCCC=C)NC(=O)[C@H](CCC(=O)O)NC(=O)[C@H](CC(N)=O)NC(=O)[C@H](CC(C)C)NC(=O)[C@H](CCCCN)NC(=O)[C@H](CCC(=O)O)NC(=O)[C@H](CCCN=C(N)N)NC(=O)[C@H](Cc1ccccc1)NC(=O)[C@H](CCC(=O)O)NC(=O)[C@H](CC(=O)O)NC(=O)[C@H](CC(C)C)NC(=O)[C@@H](NC(=O)[C@@H]1CCCN1C(C)=O)C(C)C)C(=O)N[C@@H](CC(C)C)C(=O)N[C@@H](CCCCN)C(N)=O` (Ac-PVLDEFREKLNE[Ala(5-hexenyl)]LEALKQ[Ala(5-hexenyl)]LK-NH2) is 900 nM.

With `C=CCCCCCC[C@H](NC(=O)[C@H](CCC(=O)O)NC(=O)[C@H](CC(N)=O)NC(=O)[C@H](CC(C)C)NC(=O)[C@H](CCCCN)NC(=O)[C@H](CCC(=O)O)NC(=O)[C@H](CCCN=C(N)N)NC(=O)[C@H](CCCCCCC=C)NC(=O)[C@H](CCC(=O)O)NC(=O)[C@H](CC(=O)O)NC(=O)[C@H](CC(C)C)NC(=O)[C@@H](NC(=O)[C@@H]1CCCN1C(C)=O)C(C)C)C(=O)N[C@@H](CC(C)C)C(=O)N[C@@H](CCC(=O)O)C(=O)N[C@@H](C)C(=O)N[C@@H](CC(C)C)C(=O)N[C@@H](CCCCN)C(=O)N[C@@H](CCC(N)=O)C(=O)N[C@@H](CCCCN)C(=O)N[C@@H](CC(C)C)C(=O)N[C@@H](CCCCN)C(N)=O` (Ac-PVLDE[Gly(oct-7-en-1-yl)]REKLNE[Gly(oct-7-en-1-yl)]LEALKQKLK-NH2), the 50% effective concentration (EC50) is 400 nM.

For the molecule `CCCCCCC[C@H](NC(=O)[C@H](CCC(=O)O)NC(=O)[C@H](CC(N)=O)NC(=O)[C@H](CC(C)C)NC(=O)[C@H](CCCCN)NC(=O)[C@H](CCC(=O)O)NC(=O)[C@H](CCCN=C(N)N)NC(=O)[C@H](Cc1ccccc1)NC(=O)[C@H](CCC(=O)O)NC(=O)[C@H](CC(=O)O)NC(=O)[C@H](CC(C)C)NC(=O)[C@@H](NC(=O)[C@@H]1CCCN1C(C)=O)C(C)C)C(=O)N[C@@H](CC(C)C)C(=O)N[C@@H](CCC(=O)O)C(=O)N[C@@H](C)C(=O)N[C@@H](CC(C)C)C(=O)N[C@@H](CCCCN)C(=O)N[C@@H](CCC(N)=O)C(=O)N[C@@H](CCCCN)C(=O)N[C@@H](CC(C)C)C(=O)N[C@@H](CCCCN)C(N)=O` (Ac-PVLDEFREKLNE[X1]LEALKQKLK-NH2), a half-maximal response (EC50) required 700 nM.

Consider `C=CCCCCC[C@H](NC(=O)[C@H](CCC(=O)O)NC(=O)[C@H](CCC(=O)O)NC(=O)[C@H](CC(N)=O)NC(=O)[C@H](CC(C)C)NC(=O)[C@H](CCCCN)NC(=O)[C@H](CCC(=O)O)NC(=O)[C@H](CCCNC(=N)N)NC(=O)[C@H](Cc1ccccc1)NC(=O)[C@H](CCC(=O)O)NC(=O)[C@H](CC(=O)O)NC(=O)[C@H](CC(C)C)NC(=O)[C@@H](NC(=O)[C@@H]1CCCN1C(C)=O)C(C)C)C(=O)N[C@@H](CCC(=O)O)C(=O)N[C@@H](C)C(=O)N[C@@H](CC(C)C)C(=O)N[C@@H](CCCCN)C(=O)N[C@@H](CCC(N)=O)C(=O)N[C@@H](CCCCN)C(=O)N[C@@H](CC(C)C)C(=O)N[C@@H](CCCCN)C(N)=O`, for which the EC50 was > 100000 nM.

Molecule `C=CCCCCC[C@H](NC(=O)[C@H](CCC(=O)O)NC(=O)[C@H](CC(N)=O)NC(=O)[C@H](CC(C)C)NC(=O)[C@H](CCCCN)NC(=O)[C@H](CCC(=O)O)NC(=O)[C@H](CCCNC(=N)N)NC(=O)[C@H](Cc1ccccc1)NC(=O)[C@H](CCC(=O)O)NC(=O)[C@H](CC(=O)O)NC(=O)[C@H](CC(C)C)NC(=O)[C@@H](NC(=O)[C@@H]1CCCN1C(C)=O)C(C)C)C(=O)N[C@@H](CC(C)C)C(=O)N[C@@H](CCC(=O)O)C(=O)N[C@@H](C)C(=O)N[C@@H](CC(C)C)C(=O)N[C@@H](CCCCN)C(=O)N[C@@H](CCC(N)=O)C(=O)N[C@@H](CCCCN)C(=O)N[C@@H](CC(C)C)C(=O)N[C@@H](CCCCN)C(N)=O` (Ac-PVLDEFREKLNE[Ala(5-hexenyl)]LEALKQKLK-NH2) returned an EC50 of 2400 nM. In the case of `C=CCCCCC[C@@H](NC(=O)[C@@H]1CCCN1C(C)=O)C(=O)N[C@@H](CC(C)C)C(=O)N[C@@H](CC(=O)O)C(=O)N[C@@H](CCC(=O)O)C(=O)N[C@@H](Cc1ccccc1)C(=O)N[C@@H](CCCNC(=N)N)C(=O)N[C@@H](CCC(=O)O)C(=O)N[C@@H](CCCCN)C(=O)N[C@@H](CC(C)C)C(=O)N[C@@H](CC(N)=O)C(=O)N[C@@H](CCC(=O)O)C(=O)N[C@@H](CCC(=O)O)C(=O)N[C@@H](CC(C)C)C(=O)N[C@@H](CCC(=O)O)C(=O)N[C@@H](C)C(=O)N[C@@H](CC(C)C)C(=O)N[C@@H](CCCCN)C(=O)N[C@@H](CCC(N)=O)C(=O)N[C@@H](CCCCN)C(=O)N[C@@H](CC(C)C)C(=O)N[C@@H](CCCCN)C(N)=O` it was > 100000 nM.

As a reminder, the EC50 is the concentration giving half of the maximal effect. Low values mean higher potency in that assay, high ones lower potency in that assay.
